What was measured:
[1] = molecular target: CDK9/cyclinT1 (Homo sapiens, UniProt P50750); assay: biochemical; design: Invitrogen kinase panel: Z'Lyte activity (ATP at Km) or LanthaScreen competitive ATP-site binding, percent inhibition
[2] = molecular target: T1, CK2_alpha1 (Homo sapiens, UniProt P68400); assay: biochemical; design: Invitrogen kinase panel: Z'Lyte activity (ATP at Km) or LanthaScreen competitive ATP-site binding, percent inhibition
T1 construct: gene CSNK2A1

[3] = molecular target: T2, CaMKI (Homo sapiens, UniProt Q14012); assay: biochemical; design: Invitrogen kinase panel: Z'Lyte activity (ATP at Km) or LanthaScreen competitive ATP-site binding, percent inhibition
T2 construct: gene CAMK1

[4] = molecular target: T3, CaMKI_delta (Homo sapiens, UniProt Q8IU85); assay: biochemical; design: Invitrogen kinase panel: Z'Lyte activity (ATP at Km) or LanthaScreen competitive ATP-site binding, percent inhibition
T3 construct: gene CAMK1D

[5] = molecular target: T4, DRAK1 (Homo sapiens, UniProt Q9UEE5); assay: biochemical; design: Invitrogen kinase panel: Z'Lyte activity (ATP at Km) or LanthaScreen competitive ATP-site binding, percent inhibition
T4 construct: gene STK17A

[6] = molecular target: InsR (Homo sapiens, UniProt P06213); assay: biochemical; design: Invitrogen kinase panel: Z'Lyte activity (ATP at Km) or LanthaScreen competitive ATP-site binding, percent inhibition
[7] = molecular target: T5, KHS1 (Homo sapiens, UniProt Q9Y4K4); assay: biochemical; design: Invitrogen kinase panel: Z'Lyte activity (ATP at Km) or LanthaScreen competitive ATP-site binding, percent inhibition
T5 construct: gene MAP4K5

[8] = molecular target: MARK3 (Homo sapiens, UniProt P27448); assay: biochemical; design: Invitrogen kinase panel: Z'Lyte activity (ATP at Km) or LanthaScreen competitive ATP-site binding, percent inhibition
[9] = molecular target: T6, MLK2 (Homo sapiens, UniProt Q02779); assay: biochemical; design: Invitrogen kinase panel: Z'Lyte activity (ATP at Km) or LanthaScreen competitive ATP-site binding, percent inhibition
T6 construct: gene MAP3K10

[10] = molecular target: T7, MYLK(smMLCK) (Homo sapiens, UniProt Q15746); assay: biochemical; design: Invitrogen kinase panel: Z'Lyte activity (ATP at Km) or LanthaScreen competitive ATP-site binding, percent inhibition
T7 construct: smMLCK

[11] = molecular target: Mink1 (Homo sapiens, UniProt Q8N4C8); assay: biochemical; design: Invitrogen kinase panel: Z'Lyte activity (ATP at Km) or LanthaScreen competitive ATP-site binding, percent inhibition
[12] = molecular target: T8, PI3K-G (Homo sapiens, UniProt P48736); assay: biochemical; design: Invitrogen kinase panel: Z'Lyte activity (ATP at Km) or LanthaScreen competitive ATP-site binding, percent inhibition
T8 construct: gene PIK3CG

[13] = molecular target: PrKX (Homo sapiens, UniProt P51817); assay: biochemical; design: Invitrogen kinase panel: Z'Lyte activity (ATP at Km) or LanthaScreen competitive ATP-site binding, percent inhibition
[14] = molecular target: T9, TrkB (Homo sapiens, UniProt Q16620); assay: biochemical; design: Invitrogen kinase panel: Z'Lyte activity (ATP at Km) or LanthaScreen competitive ATP-site binding, percent inhibition
T9 construct: gene NTRK2

[15] = molecular target: T10, ZIPK (Homo sapiens, UniProt O43293); assay: biochemical; design: Invitrogen kinase panel: Z'Lyte activity (ATP at Km) or LanthaScreen competitive ATP-site binding, percent inhibition
T10 construct: gene DAPK3

[16] = molecular target: T11, Inositol-Requiring Enzyme 1 (IRE1) (Homo sapiens, UniProt O75460); assay: co-crystal structure ([…] Å); also TR-FRET kinase binding, HX-MS, RNase activation; design: gene ERN1; IRE1 KR (G547-L977), unphosphorylated (IRE1-0P)
[17] = molecular target: T12, Cot (Homo sapiens, UniProt P41279); assay: biochemical; design: Invitrogen kinase panel: Z'Lyte activity (ATP at Km) or LanthaScreen competitive ATP-site binding, percent inhibition
T12 construct: gene MAP3K8

[18] = molecular target: T13, FAK2 (Homo sapiens, UniProt Q14289); assay: biochemical; design: Invitrogen kinase panel: Z'Lyte activity (ATP at Km) or LanthaScreen competitive ATP-site binding, percent inhibition
T13 construct: gene PTK2B

[19] = molecular target: Fyn (Homo sapiens, UniProt P06241); assay: biochemical; design: Invitrogen kinase panel: Z'Lyte activity (ATP at Km) or LanthaScreen competitive ATP-site binding, percent inhibition
[20] = molecular target: T14, GCK (Homo sapiens, UniProt Q12851); assay: biochemical; design: Invitrogen kinase panel: Z'Lyte activity (ATP at Km) or LanthaScreen competitive ATP-site binding, percent inhibition
T14 construct: gene MAP4K2

[21] = molecular target: T15, PDGFR_beta (Homo sapiens, UniProt P09619); assay: biochemical; design: Invitrogen kinase panel: Z'Lyte activity (ATP at Km) or LanthaScreen competitive ATP-site binding, percent inhibition
T15 construct: gene PDGFRB

[22] = molecular target: T16, PKC_iota (Homo sapiens, UniProt P41743); assay: biochemical; design: Invitrogen kinase panel: Z'Lyte activity (ATP at Km) or LanthaScreen competitive ATP-site binding, percent inhibition
T16 construct: gene PRKCI

[23] = molecular target: T11, Inositol-Requiring Enzyme 1 (IRE1); assay: co-crystal structure ([…] Å); also TR-FRET kinase binding, HX-MS, SV-AUC, RNase activation; design: gene ERN1; unphosphorylated IRE1 cytoplasmic kinase-RNase (IRE1-0P)

Sequence of InsR (P06213 whole entry): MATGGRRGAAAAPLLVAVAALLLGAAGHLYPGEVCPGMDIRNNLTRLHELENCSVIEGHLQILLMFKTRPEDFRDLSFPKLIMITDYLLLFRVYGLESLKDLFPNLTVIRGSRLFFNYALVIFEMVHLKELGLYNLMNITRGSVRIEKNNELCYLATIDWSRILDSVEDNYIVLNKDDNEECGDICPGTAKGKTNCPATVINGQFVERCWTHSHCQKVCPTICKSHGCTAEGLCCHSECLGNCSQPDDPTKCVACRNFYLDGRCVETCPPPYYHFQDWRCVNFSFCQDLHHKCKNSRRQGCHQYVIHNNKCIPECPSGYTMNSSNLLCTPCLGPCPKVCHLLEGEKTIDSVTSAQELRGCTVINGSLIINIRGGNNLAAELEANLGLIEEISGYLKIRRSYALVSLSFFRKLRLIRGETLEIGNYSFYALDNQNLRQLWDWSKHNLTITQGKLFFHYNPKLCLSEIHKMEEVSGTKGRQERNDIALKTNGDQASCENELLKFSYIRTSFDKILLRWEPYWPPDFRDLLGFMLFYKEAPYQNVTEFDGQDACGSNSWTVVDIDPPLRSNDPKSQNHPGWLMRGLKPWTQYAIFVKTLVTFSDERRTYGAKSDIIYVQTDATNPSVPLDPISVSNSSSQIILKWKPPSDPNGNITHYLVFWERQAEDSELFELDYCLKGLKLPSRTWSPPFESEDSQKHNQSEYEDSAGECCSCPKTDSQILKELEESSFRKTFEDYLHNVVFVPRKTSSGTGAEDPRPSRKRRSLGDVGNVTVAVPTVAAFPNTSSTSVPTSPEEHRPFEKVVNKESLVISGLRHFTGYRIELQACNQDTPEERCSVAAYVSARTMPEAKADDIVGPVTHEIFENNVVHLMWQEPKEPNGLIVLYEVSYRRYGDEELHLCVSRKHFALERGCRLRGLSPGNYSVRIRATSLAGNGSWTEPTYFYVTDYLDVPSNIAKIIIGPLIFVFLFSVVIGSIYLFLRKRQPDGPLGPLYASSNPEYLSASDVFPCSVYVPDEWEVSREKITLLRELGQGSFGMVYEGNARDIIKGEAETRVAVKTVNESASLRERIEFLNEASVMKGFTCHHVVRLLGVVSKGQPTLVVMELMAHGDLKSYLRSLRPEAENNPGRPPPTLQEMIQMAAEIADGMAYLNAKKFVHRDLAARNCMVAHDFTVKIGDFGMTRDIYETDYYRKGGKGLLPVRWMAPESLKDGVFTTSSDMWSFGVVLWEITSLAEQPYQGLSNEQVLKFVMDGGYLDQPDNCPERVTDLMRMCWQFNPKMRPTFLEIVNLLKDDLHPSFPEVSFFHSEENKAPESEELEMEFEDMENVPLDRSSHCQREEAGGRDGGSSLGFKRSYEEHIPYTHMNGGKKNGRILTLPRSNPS
T4 sequence (Q9UEE5 whole entry): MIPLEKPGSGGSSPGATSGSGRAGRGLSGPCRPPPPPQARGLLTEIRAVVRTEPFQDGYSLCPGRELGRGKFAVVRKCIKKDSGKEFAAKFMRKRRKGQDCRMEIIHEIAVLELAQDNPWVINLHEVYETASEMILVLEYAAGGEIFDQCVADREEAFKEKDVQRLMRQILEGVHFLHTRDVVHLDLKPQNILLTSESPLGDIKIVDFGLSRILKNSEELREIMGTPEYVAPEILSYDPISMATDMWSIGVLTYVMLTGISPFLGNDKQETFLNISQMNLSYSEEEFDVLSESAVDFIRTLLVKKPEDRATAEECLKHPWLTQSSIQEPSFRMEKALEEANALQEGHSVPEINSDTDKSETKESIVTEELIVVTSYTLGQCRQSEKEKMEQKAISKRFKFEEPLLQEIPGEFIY
T6 sequence (Q02779 whole entry): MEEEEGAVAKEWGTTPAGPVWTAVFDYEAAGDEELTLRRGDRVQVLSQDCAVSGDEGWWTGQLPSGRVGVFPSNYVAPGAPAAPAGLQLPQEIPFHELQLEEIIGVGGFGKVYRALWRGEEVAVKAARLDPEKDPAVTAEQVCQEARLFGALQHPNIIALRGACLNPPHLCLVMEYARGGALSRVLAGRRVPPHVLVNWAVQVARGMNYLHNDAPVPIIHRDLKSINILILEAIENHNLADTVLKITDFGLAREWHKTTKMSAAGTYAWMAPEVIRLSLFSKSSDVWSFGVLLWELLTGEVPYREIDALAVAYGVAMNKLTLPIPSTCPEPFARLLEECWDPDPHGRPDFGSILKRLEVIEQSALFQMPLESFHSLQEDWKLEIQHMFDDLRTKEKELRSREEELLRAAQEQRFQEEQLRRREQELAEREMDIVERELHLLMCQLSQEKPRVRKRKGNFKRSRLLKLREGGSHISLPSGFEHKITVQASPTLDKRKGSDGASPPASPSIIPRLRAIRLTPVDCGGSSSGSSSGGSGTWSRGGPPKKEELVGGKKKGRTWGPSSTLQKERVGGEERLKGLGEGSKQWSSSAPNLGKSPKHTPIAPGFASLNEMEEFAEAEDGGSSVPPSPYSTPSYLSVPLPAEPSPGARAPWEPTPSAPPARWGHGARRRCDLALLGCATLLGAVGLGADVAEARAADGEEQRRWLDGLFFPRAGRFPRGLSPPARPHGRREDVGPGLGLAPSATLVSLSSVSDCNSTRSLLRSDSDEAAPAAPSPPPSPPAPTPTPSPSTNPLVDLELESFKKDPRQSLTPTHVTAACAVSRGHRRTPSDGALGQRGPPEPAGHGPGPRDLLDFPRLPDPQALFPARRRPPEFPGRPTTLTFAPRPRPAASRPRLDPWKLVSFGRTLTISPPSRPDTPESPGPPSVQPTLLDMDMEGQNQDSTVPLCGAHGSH
T3 sequence (Q8IU85 whole entry): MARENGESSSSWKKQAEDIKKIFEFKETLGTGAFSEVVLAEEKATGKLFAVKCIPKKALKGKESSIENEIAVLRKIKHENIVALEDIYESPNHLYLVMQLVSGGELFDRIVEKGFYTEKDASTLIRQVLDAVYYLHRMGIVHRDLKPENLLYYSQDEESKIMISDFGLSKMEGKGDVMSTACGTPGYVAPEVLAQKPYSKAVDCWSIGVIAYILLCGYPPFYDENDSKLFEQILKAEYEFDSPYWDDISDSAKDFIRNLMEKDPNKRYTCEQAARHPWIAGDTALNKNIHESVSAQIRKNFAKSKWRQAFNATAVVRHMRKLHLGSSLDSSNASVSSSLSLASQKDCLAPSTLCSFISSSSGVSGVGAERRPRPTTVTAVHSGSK
T5 sequence (Q9Y4K4 whole entry): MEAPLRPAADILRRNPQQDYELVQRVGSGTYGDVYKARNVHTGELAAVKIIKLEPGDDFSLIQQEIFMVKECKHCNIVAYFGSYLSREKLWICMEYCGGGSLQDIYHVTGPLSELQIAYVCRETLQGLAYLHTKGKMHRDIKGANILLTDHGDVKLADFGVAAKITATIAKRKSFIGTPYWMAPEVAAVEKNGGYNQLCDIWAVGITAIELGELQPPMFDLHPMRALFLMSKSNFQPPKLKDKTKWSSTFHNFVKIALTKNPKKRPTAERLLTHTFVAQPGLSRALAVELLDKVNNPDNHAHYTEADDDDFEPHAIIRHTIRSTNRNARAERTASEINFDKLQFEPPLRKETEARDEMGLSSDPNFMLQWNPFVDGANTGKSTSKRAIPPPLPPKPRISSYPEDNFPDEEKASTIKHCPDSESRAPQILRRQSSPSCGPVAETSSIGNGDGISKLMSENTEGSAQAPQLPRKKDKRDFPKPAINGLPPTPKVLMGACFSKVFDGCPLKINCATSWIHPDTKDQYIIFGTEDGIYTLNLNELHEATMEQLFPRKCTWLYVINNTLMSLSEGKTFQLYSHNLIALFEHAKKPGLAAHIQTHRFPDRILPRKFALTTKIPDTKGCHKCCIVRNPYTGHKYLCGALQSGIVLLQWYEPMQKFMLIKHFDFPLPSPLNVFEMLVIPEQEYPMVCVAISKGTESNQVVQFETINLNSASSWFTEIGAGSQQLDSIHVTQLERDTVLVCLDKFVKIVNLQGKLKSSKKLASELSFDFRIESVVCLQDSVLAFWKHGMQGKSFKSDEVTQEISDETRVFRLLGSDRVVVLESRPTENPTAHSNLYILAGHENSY
T11 sequence (O75460 547-977): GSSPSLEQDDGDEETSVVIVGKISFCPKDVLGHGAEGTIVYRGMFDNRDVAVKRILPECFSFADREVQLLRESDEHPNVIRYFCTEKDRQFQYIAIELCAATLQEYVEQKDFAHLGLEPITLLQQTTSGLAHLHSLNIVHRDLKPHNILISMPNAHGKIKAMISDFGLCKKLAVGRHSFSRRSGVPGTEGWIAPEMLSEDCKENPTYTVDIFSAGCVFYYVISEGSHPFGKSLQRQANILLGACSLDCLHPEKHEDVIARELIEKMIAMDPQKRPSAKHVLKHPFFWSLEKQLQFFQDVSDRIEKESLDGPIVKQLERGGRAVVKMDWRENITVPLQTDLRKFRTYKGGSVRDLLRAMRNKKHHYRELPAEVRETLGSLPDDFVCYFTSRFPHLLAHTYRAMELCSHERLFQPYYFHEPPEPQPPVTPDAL
T1 sequence (P68400 whole entry): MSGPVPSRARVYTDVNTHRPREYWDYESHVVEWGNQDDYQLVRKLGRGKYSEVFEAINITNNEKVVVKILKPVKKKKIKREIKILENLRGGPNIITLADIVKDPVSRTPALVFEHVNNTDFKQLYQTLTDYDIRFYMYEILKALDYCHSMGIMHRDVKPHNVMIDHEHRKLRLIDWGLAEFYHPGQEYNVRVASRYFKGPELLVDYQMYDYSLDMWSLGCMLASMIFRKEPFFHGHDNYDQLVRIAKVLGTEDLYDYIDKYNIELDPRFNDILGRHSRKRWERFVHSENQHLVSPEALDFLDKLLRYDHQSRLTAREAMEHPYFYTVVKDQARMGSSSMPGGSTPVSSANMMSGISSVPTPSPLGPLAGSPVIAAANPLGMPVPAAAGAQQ

Row | Compound | inhibition at 1 µM [1] [%] | inhibition at 1 µM [2] [%] | inhibition at 1 µM [3] [%] | inhibition at 1 µM [4] [%] | inhibition at 1 µM [5] [%] | inhibition at 1 µM [6] [%] | inhibition at 1 µM [7] [%] | inhibition at 1 µM [8] [%] | inhibition at 1 µM [9] [%] | inhibition at 1 µM [10] [%] | inhibition at 1 µM [11] [%] | inhibition at 1 µM [12] [%] | inhibition at 1 µM [13] [%] | inhibition at 1 µM [14] [%] | inhibition at 1 µM [15] [%] | also measured
1 | CCOC(=O)Nc1cccc2c(Oc3ncccc3-c3ccnc(N[C@H]4CCCNC4)n3)c(C)ccc12 [G-1749] | 29 | 0.5 | -10 | 0 | 0 | 2.5 | 29.5 | 8 | 0.5 | 1.5 | 25 | 16 | -0.5 | 0.5 | 1 | IC50 [16]: low-nanomolar
2 | CC#CC(=O)Nc1cccc2c(Oc3ncccc3-c3ccnc(N[C@H]4CCCNC4)n3)c(C)ccc12 [G-7658] | 35 | 0 | -2.5 | 0.5 | -4 | 3 | 18 | 8 | 4 | 6 | 4 | -7 | -1.5 | 0.5 | 0 | –
3 | O=c1cc(-c2n[nH]c3ncc(-c4c(F)cccc4F)cc23)nc(N2CCC(O)CC2)[nH]1 [G-9807] | – | – | – | – | – | – | – | – | – | – | – | – | – | – | – | inhibition at 1 µM [17]: 94%; inhibition at 1 µM [18]: 79.6%; inhibition at 1 µM [19]: 76.2%; inhibition at 1 µM [20]: 95.7%; inhibition at 1 µM [21]: 80.4%; inhibition at 1 µM [22]: 46.6%; IC50 [23]: low-nanomolar

From publication PMC7736581, “Activation of the IRE1 RNase through remodeling of the kinase front pocket by ATP-competitive ligands” (Nature Communications, 2020)
